The results in this text go back to patent US10624346B2, “Herbicidal composition and method for controlling weeds” (Sumitomo Chemical Company, Limited, priority 2016, dated 2020).

Structures are written as SMILES.

One test relates to Echinochloa crus-galli. In words: Greenhouse pot test, post-emergence spray, herbicidal effect (Examples 202, 203). In kind it is in vivo. As to conditions: sprayed at 2-3 leaf stage, one week. From the text:
(§1) A plastic pot was filled with a commercially-available culture soil, and thereto inubie (common barnyardgrass; Echinochloa crus-galli) or akinoenokorogusa (giant foxtail; […] When the weeds grew to two to three leaf stage, a spray liquid of the compound X, a spray liquid of dicamba diglycolamine salt, or a spray liquid of the present composition was uniformly sprayed to the whole plants so that the application rate might be a predetermined value. The spray liquid of the present composition was prepared by mixing the spray liquid of the compound X with the spray liquid of dicamba diglycolamine salt. The spray liquid of the compound X was prepared by mixing a predetermined amount of the formulation X with deionized water. […] After applying the spray liquid, the plants were placed in a greenhouse for a week. […] A plastic pot was filled with a commercially-available culture soil, and thereto inubie (common barnyardgrass; Echinochloa crus-galli) or akinoenokorogusa (giant foxtail; […] The spray liquid of the compound X was prepared by mixing a predetermined amount of the formulation X with deionized water. […] After applying the spray liquid, the plants were placed in a greenhouse for a week.

The next test relates to Setaria faberi. Described as above. It counts as in vivo. As to conditions: sprayed at 2-3 leaf stage, one week.
Description: as §1

Setting [1] is: dicamba salt 50 g/ha alone, scale 0-100.
Where [2] appears, read: dicamba salt 500 g/ha alone, scale 0-100.
The mark [3] stands for this setting: Compound X 5 g/ha alone, scale 0 (no effect) to 100 (completely dead).
[4] abbreviates: Compound X 10 g/ha alone, scale 0-100.

Consider `CN(CCCN)CCCN.COc1c(Cl)ccc(Cl)c1C(=O)O` [dicamba BAPMA salt, dicamba N,N-bis(3-aminopropyl)methylamine salt], for which the “Herbicidal effect on Echinochloa crus-galli (observed value)” value in the test on Echinochloa crus-galli (setting [1]) is on record as 0; with Echinochloa crus-galli (setting [2]), 5. The entries for the “Herbicidal effect on Setaria faberi (observed value)” value (from here on “Herbicidal effect on Setaria faberi”) with Setaria faberi (setting [1]) and in the test on Setaria faberi (setting [2]) were 0 and 10, respectively.

As for `CCOC(=O)COc1ncccc1Oc1cc(-n2c(=O)cc(C(F)(F)F)n(C)c2=O)c(F)cc1Cl` [Compound X, ethyl [3-[2-chloro-4-fluoro-5-(1-methyl-6-trifluoromethyl-2,4-dioxo-1,2,3,4-tetrahydropyrimidin-3-yl)phenoxy]-2-pyridyloxy]acetate], the “Herbicidal effect on Echinochloa crus-galli (observed value)” value in the test with Echinochloa crus-galli (setting [3]) is 20; in the test with Echinochloa crus-galli (setting [4]), 35. Further, the “Herbicidal effect on Setaria faberi” value with Setaria faberi (setting [3]) amounted to 30; in the test on Setaria faberi (setting [4]) it was 45.

As to `COc1c(Cl)ccc(Cl)c1C(=O)O.NCCOCCO` [dicamba diglycolamine salt], the “Herbicidal effect on Echinochloa crus-galli (observed value)” value in the test with Echinochloa crus-galli (setting [1]) amounted to 0; in the test with Echinochloa crus-galli (setting [2]), 10. For the same molecule, the “Herbicidal effect on Setaria faberi” value with Setaria faberi (setting [1]) and in the test on Setaria faberi (setting [2]) was 0 throughout.
